Data from US20250319049A1, “Additive for animal nutrition” (ADISSEO FRANCE S.A.S., priority 2022, published 2025).

Legend:
[1] = palatability / growth performance test in broilers; type: in vivo; conditions: broiler chickens, 17-21 days, butyrate source incorporated in standard feed (STD), five days
Protocol: This evaluation was carried out by in vivo tests conducted in broilers and in piglets at the post-weaning stage. The chickens were placed in normal breeding conditions. They were divided into several groups, and each group received for five days a feed containing a source of butyrate, incorporated directly into a standard feed (STD). […] The growth performances and feed consumption were measured at the beginning and end of the study.

[2] = palatability / growth performance test in post-weaning piglets; type: in vivo; parameters: concentration or dose not given beside the values; conditions: butyrate source in standard feed (STD); for BWG (body weight gain), effect compared to a standard control: 36-49 days old; for FCR (feed conversion ratio), effect compared to a standard control / FI (feed intake), effect compared to a standard control: 36-49 days
Protocol: This evaluation was carried out by in vivo tests conducted in broilers and in piglets at the post-weaning stage.
The animals were placed in normal breeding conditions.
They were divided into four distinct groups, and each group received for about ten days (from 36 to 49 days of age) a standard feed (STD) containing a source of butyrate. Several sources of butyrate were compared: the butyryl lactylate of the disclosure and two protected forms of butyrate, commercially available, a coated butyrate (fat-coated) and tributyrin.
The growth performances and feed consumption were measured at the beginning and end of the study.

[3] = in vitro upper digestive tract model (simulated chicken crop, proventriculus/gizzard, intestine): release of butyric acid; type: in vitro ADME; conditions: 50 mM butyric acid equivalent; for release of butyric acid in the stomach: proventriculus/gizzard 45 min at pH 3, 40° C. with pepsin
Protocol: The experimental tests were conducted in in vitro models described below.
The method developed by Menezez and Blackburn was used to simulate the chicken digestive tract [Menezes-Blackburn D, Gabler S, Greiner R. «Performance of Seven Commercial Phytases in an in Vitro Simulation of Poultry Digestive Tract.»J Agric Food Chem. 2015 Jul. 15; 63 (27): 6142-9]. It consists of simulating the 3 compartments of the upper part of the digestive tract: the crop (30 min at pH 5, 40° C. with stirring), the proventriculus/gizzard (45 min at pH 3, 40° C. with stirring with the addition of pepsin), the intestine (60 min at pH 6.5, 40° C. with stirring with the addition of pancreatin and bile extract). The rate of protection and release of butyrate for each molecule (50 mM butyric acid equivalent of the butyryl lactylate of the disclosure or tributyrin of the prior art) was evaluated in each compartment sequentially (quantification of the release of butyric acid and residual butyric ester).

solubility in water = type: physicochemical
[4] = hydrolysis in drinking water; type: physicochemical; conditions: drinking water of livestock
[5] = in vitro lower digestive tract model (caecal fermentation): release of butyric acid; type: in vitro ADME, broiler chickens (Ross PM33); conditions: 50 mM butyric acid equivalent; upper tract model plus caecal fermentation 24 hours at 40° C.
Protocol: Twelve twenty-one-day-old broiler chickens (Ross PM33), housed in cages, fed and watered ad libitum, were euthanized and their caecal contents were collected and pooled. All experiments were conducted in accordance with the European Union animal protection guidelines and the legislation governing the ethical treatment of animals, and the researchers were certified by the French government to conduct animal experiments. The facilities of the Centre of Expertise and Research in Nutrition comply with Convention No. C 03 159 4 of 6 Nov. 2008, relating to experiments on living vertebrate animals (European Regulation 24/11/86 86/609 EEC; Ministerial Order of 19 Apr. 1988).
The cecal contents were mixed (5% w/v) with an anaerobic buffer prepared according to Theodorou et al. [Theodorou, Michael K., et al. “A simple gas production method using a pressure transducer to determine the fermentation kinetics of ruminant feeds.” Animal feed science and technology 48.3-4 (1994): 185-197], then the microbial suspension transferred into Hungate tubes containing 50 mM of butyric acid equivalent for each candidate (butyryl lactylate of the disclosure or tributyrin of the prior art) and incubated for 24 hours with constant stirring at 40° C.
At the end of the fermentation, the butyric acid and residual butyric ester were quantified.

[6] = listed as STD + tributyrine butyrate
[7] = listed as STD + butyryl lactylate
[8] = listed as STD + Butyryl lactylate

Structure (SMILES) | BWG (body weight gain), effect compared to a standard diet [1] | FCR (feed conversion ratio), effect compared to a standard diet [1] | FI (feed intake), effect compared to a standard diet [1] | BWG (body weight gain), effect compared to a standard control [2] | FCR (feed conversion ratio), effect compared to a standard control [2] | FI (feed intake), effect compared to a standard control [2] | release of butyric acid in the stomach [3] | further results
CCCC(=O)OCC(COC(=O)CCC)OC(=O)CCC [tributyrin, reference compound] | −9% | +6.6% | −3% | −17% | +3.3% | −14% | significant gastric loss | BWG (body weight gain), effect compared to a standard diet [1, 6]: −9%; FI (feed intake), effect compared to a standard diet [1, 6]: −3%; BWG (body weight gain), effect compared to a standard control [2, 6]: −17%; FCR (feed conversion ratio), effect compared to a standard control [2, 6]: +3.3%; FI (feed intake), effect compared to a standard control [2, 6]: −14%; release of butyric acid in the intestine (upper part) ([3]; intestine 60 min at pH 6.5, 40° C. with pancreatin and bile extract): complete release at the beginning of the small intestine
CCCC(=O)OC(C)C(=O)O (stereo not shown) [butyryl lactylate] | +10% | −6.7% | +2.8% | +21% | −4% | +16% | does not release butyric acid in the stomach | BWG (body weight gain), effect compared to a standard diet [1, 7]: +10%; FI (feed intake), effect compared to a standard diet [1, 7]: +2.8%; solubility in water (solubility in water): soluble in water; hydrolysis into lactic acid and free butyric acid in drinking water [4]: without risk of hydrolysis; BWG (body weight gain), effect compared to a standard control [2, 8]: +21%; FCR (feed conversion ratio), effect compared to a standard control [2, 8]: −4.8%; FI (feed intake), effect compared to a standard control [2, 8]: +16%; intestinal release profile of butyric acid, upper and lower intestine [5]: balanced release in the upper and lower intestine
